Data reported in patent US10273224B2, “Substituted pyrimidine compounds, compositions and medicinal applications thereof” (JUBILANT BIOSYS LIMITED, priority 2013, dated 2019).

Molecular target: T1, EGFR (L858R & T790M) (Homo sapiens, UniProt P00533, L858R/T790M)
T1 construct: GST; purchased Proqinase
Experiment: EGFR (L858R & T790M) inhibition assay, HTRF method
Settings: biochemical HTRF; EGFR (T790M/L858R) 2.5 nM, ATP 5 μM, 60 min room temperature
Procedure, shortened: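 GST-EGFR T790M/L858R (2.5 nM) phosphorylating biotinylated gastrin precursor peptide (0.5 μM) with 5 μM ATP in HEPES pH 7.4/Mg/Mn buffer, 60 min room temperature; compounds from 10 μM top. HTRF read-out (Eu anti-pTyr, SA-APC), 665/620 nm; IC50 from % inhibition.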

T1 sequence (P00533 25-1210 T790M/L858R): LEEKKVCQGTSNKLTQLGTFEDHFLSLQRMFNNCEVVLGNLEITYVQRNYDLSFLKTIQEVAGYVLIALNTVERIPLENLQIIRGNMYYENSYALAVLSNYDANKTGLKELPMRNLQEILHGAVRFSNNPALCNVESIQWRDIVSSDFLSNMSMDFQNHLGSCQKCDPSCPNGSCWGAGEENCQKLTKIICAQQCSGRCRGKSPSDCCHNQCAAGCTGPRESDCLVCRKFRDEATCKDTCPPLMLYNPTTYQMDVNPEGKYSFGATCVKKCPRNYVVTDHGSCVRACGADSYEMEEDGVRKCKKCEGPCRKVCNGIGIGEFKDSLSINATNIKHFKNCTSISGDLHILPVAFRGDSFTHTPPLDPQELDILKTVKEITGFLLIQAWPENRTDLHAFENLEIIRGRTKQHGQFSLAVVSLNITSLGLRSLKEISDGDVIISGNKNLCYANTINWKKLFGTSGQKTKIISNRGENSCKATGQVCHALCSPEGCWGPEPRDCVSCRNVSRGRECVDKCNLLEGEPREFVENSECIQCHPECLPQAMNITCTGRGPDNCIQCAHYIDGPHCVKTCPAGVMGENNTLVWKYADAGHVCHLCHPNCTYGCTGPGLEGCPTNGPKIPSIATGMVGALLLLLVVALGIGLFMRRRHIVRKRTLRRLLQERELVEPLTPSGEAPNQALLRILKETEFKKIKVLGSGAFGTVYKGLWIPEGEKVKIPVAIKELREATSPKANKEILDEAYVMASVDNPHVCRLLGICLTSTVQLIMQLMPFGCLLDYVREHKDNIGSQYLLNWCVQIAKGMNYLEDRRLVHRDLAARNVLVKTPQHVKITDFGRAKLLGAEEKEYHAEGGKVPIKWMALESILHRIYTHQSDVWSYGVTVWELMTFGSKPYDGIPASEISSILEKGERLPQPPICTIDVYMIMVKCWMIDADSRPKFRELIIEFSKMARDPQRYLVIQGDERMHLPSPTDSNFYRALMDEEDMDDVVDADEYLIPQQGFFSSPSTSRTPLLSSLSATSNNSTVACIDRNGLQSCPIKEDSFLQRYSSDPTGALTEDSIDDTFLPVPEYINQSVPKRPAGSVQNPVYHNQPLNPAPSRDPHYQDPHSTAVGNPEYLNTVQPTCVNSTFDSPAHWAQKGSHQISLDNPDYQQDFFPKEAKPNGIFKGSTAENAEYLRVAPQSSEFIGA

Row | Structure (SMILES) | IC50 [µM]
1 | C=CC(=O)NCC1CCCC(Nc2nc(Nc3cnn(C)c3)ncc2Cl)C1 (stereo not shown) [Compound I-108, N-((3-((5-chloro-2-((1-methyl-1H-pyrazol-4-yl)amino)pyrimidin-4-yl)amino)cyclohexyl)methyl)acrylamide] | > 0.1
2 | CN(C)C/C=C/C(=O)NCC1CCCC(Nc2nc(Nc3cnn(C)c3)ncc2Cl)C1 (stereo not shown) [Compound I-109, (E)-N-((3-((5-chloro-2-((1-methyl-1H-pyrazol-4-yl)amino)pyrimidin-4-yl)amino)cyclohexyl)methyl)-4-(dimethylamino)but-2-enamide] | > 0.1
3 | C=CC(=O)N(C)c1ccc(F)c(Nc2nc(Nc3cnn(C)c3)ncc2Cl)c1 [Compound I-110, N-(3-((5-chloro-2-((1-methyl-1H-pyrazol-4-yl)amino)pyrimidin-4-yl)amino)-4-fluorophenyl)-N-methylacrylamide] | > 0.1
4 | C=CC(=O)Nc1ccc(F)c(N(C)c2nc(Nc3cnn(C)c3)ncc2Cl)c1 [Compound I-111, N-(3-((5-chloro-2-((1-methyl-1H-pyrazol-4-yl)amino)pyrimidin-4-yl)(methyl)amino)-4-fluorophenyl)acrylamide] | < 0.01
5 | C=CC(=O)NC1CCCC(Nc2nc(Nc3cc(C)ns3)ncc2Cl)C1 (stereo not shown) [Compound I-114, N-(3-((5-chloro-2-((3-methylisothiazol-5-yl)amino)pyrimidin-4-yl)amino)cyclohexyl)acrylamide] | 0.01 to 0.1
6 | Cc1cc(Nc2ncc(Cl)c(NC3CCCC(NC(=O)/C=C/CN(C)C)C3)n2)sn1 (stereo not shown) [Compound I-115, (E)-N-(3-((5-chloro-2-((3-methylisothiazol-5-yl)amino)pyrimidin-4-yl)amino)cyclohexyl)-4-(dimethylamino)but-2-enamide] | > 0.1
7 | C=CC(=O)Nc1ccnc(Nc2nc(Nc3cnn(C)c3)ncc2Cl)c1 [Compound I-116, N-(2-((5-chloro-2-((1-methyl-1H-pyrazol-4-yl)amino)pyrimidin-4-yl)amino)pyridin-4-yl)acrylamide] | 0.01 to 0.1
8 | C=CC(=O)Nc1ccc(F)c(Nc2nc(Nc3cc(C)ns3)ncc2Cl)c1 [Compound I-117, N-(3-((5-chloro-2-((3-methylisothiazol-5-yl)amino)pyrimidin-4-yl)amino)-4-fluorophenyl)acrylamide] | < 0.01
9 | C=CC(=O)Nc1ccc(F)c(Nc2nc(Nc3cc(C)no3)ncc2Cl)c1 [Compound I-118, N-(3-((5-chloro-2-((3-methylisoxazol-5-yl)amino)pyrimidin-4-yl)amino)-4-fluorophenyl)acrylamide] | 0.01 to 0.1
10 | C=CC(=O)Nc1ccc(F)c(Nc2nc(Nc3onc(C)c3C)ncc2Cl)c1 [Compound I-119, N-(3-((5-chloro-2-((3,4-dimethylisoxazol-5-yl)amino)pyrimidin-4-yl)amino)-4-fluorophenyl)acrylamide] | > 0.1
11 | C=CC(=O)Nc1ccc(F)c(Nc2nc(Nc3ncc(Cl)s3)ncc2Cl)c1 [Compound I-120, N-(3-((5-chloro-2-((5-chlorothiazol-2-yl)amino)pyrimidin-4-yl)amino)-4-fluorophenyl)acrylamide] | > 0.1
12 | C=CC(=O)Nc1ccc(F)c(Nc2nc(Nc3ncc(C#N)s3)ncc2Cl)c1 [Compound I-121, N-(3-((5-chloro-2-((5-cyanothiazol-2-yl)amino)pyrimidin-4-yl)amino)-4-fluorophenyl)acrylamide] | > 0.1
13 | C=CC(=O)Nc1cccc(Nc2nc(Nc3cc(C)ns3)ncc2Cl)c1 [Compound I-122, N-(3-((5-chloro-2-((3-methylisothiazol-5-yl)amino)pyrimidin-4-yl)amino)phenyl)acrylamide] | < 0.01
14 | C=CC(=O)Nc1cccc(Nc2nc(Nc3ncc(C)s3)ncc2Cl)c1 [Compound I-123, N-(3-((5-chloro-2-((5-methylthiazol-2-yl)amino)pyrimidin-4-yl)amino)phenyl)acrylamide] | 0.01 to 0.1
15 | C=CC(=O)Nc1cccc(Nc2nc(Nc3nc(C)cs3)ncc2Cl)c1 [Compound I-124, N-(3-((5-chloro-2-((4-methylthiazol-2-yl)amino)pyrimidin-4-yl)amino)phenyl)acrylamide] | 0.01 to 0.1
16 | C=CC(=O)Nc1cccc(Nc2nc(Nc3cc(C)no3)ncc2Cl)c1 [Compound I-125, N-(3-((5-chloro-2-((3-methylisoxazol-5-yl)amino)pyrimidin-4-yl)amino)phenyl)acrylamide] | 0.01 to 0.1
17 | C=CC(=O)NC1CCCC(Nc2nc(Nc3cnn(C)c3)ncc2Cl)C1 (stereo not shown) [Compound I-126, N-(3-((5-chloro-2-((1-methyl-1H-pyrazol-4-yl)amino)pyrimidin-4-yl)amino)cyclohexyl)acrylamide 4-methylbenzenesulfonate] | > 0.1
18 | C=CC(=O)N1CCC(Nc2nc(Nc3cnn(C)c3)ncc2Cl)CC1 [II-8, 1-(4-((5-chloro-2-((1-methyl-1H-pyrazol-4-yl)amino)pyrimidin-4-yl)amino)piperidin-1-yl)prop-2-en-1-one] | > 0.1
19 | C=CC(=O)N1CCCC(CNc2nc(Nc3cnn(C)c3)ncc2Cl)C1 (stereo not shown) [II-9, 1-(3-(((5-chloro-2-((1-methyl-1H-pyrazol-4-yl)amino)pyrimidin-4-yl)amino)methyl)piperidin-1-yl)prop-2-en-1-one] | > 0.1
